Data reported in ChEMBL document CHEMBL4138123, “Design, synthesis and biological evaluation of novel pyrazolochalcones as potential modulators of PI3K/Akt/mTOR pathway and inducers of apoptosis in breast cancer cells” (Eur J Med Chem, 2017).

How the values were obtained:
Format in all cases: functional
SR = test: Cytotoxicity against human SR cells assessed as growth inhibition after 48 hrs by sulforhodamine B assay
HOP-62 = test: Cytotoxicity against human HOP62 cells assessed as growth inhibition after 48 hrs by sulforhodamine B assay; settings: HOP-62, 48 h
HCC 2998 = test: Cytotoxicity against human HCC2998 cells assessed as growth inhibition after 48 hrs by sulforhodamine B assay; settings: HCC 2998, 48 h
KM12 = test: Cytotoxicity against human KM12 cells assessed as growth inhibition after 48 hrs by sulforhodamine B assay; settings: KM12, 48 h
Hs-578T = test: Cytotoxicity against human Hs 578T cells assessed as growth inhibition after 48 hrs by sulforhodamine B assay
OVCAR-3 [1] = test: Cytotoxicity against human OVCAR3 cells assessed as cell growth at 0.01 uM after 48 hrs by sulforhodamine B assay relative to control; settings: OVCAR-3, 48 h, read-out: Activity
COLO 205 = test: Cytotoxicity against human COLO205 cells assessed as cell growth at 0.01 uM after 48 hrs by sulforhodamine B assay relative to control; settings: COLO 205, 48 h, read-out: Activity
NCI-H226 [2] = test: Cytotoxicity against human NCI-H226 cells assessed as cell growth at 0.01 uM after 48 hrs by sulforhodamine B assay relative to control; settings: NCI-H226, 48 h, read-out: Activity
HL-60(TB) = test: Cytotoxicity against human HL-60(TB) cells assessed as cell growth at 0.01 uM after 48 hrs by sulforhodamine B assay relative to control; settings: HL-60, 48 h, read-out: Activity
MCF7 = test: Cytotoxicity against human MCF7 cells assessed as cell growth at 0.01 uM after 48 hrs by sulforhodamine B assay relative to control; settings: MCF7, 48 h, read-out: Activity
NCI-H460 [3] = test: Cytotoxicity against human NCI-H460 cells assessed as cell growth at 0.1 uM after 48 hrs by sulforhodamine B assay relative to control; settings: NCI-H460, 48 h, read-out: Activity
SF-539 = test: Cytotoxicity against human SF539 cells assessed as cell growth at 0.1 uM after 48 hrs by sulforhodamine B assay relative to control; settings: SF-539, 48 h, read-out: Activity
SK-MEL-5 = test: Cytotoxicity against human SK-MEL-5 cells assessed as cell growth at 0.1 uM after 48 hrs by sulforhodamine B assay relative to control; settings: SK-MEL-5, 48 h, read-out: Activity
OVCAR-3 [4] = test: Cytotoxicity against human OVCAR3 cells assessed as cell growth at 0.1 uM after 48 hrs by sulforhodamine B assay relative to control; settings: OVCAR-3, 48 h, read-out: Activity
OVCAR-8 = test: Cytotoxicity against human OVCAR8 cells assessed as cell growth at 0.1 uM after 48 hrs by sulforhodamine B assay relative to control; settings: OVCAR-8, 48 h, read-out: Activity
DU-145 = test: Cytotoxicity against human DU145 cells assessed as cell growth at 0.1 uM after 48 hrs by sulforhodamine B assay relative to control; settings: DU-145, 48 h, read-out: Activity
BT-549 = test: Cytotoxicity against human BT549 cells assessed as cell growth at 0.1 uM after 48 hrs by sulforhodamine B assay relative to control; settings: BT-549, 48 h, read-out: Activity
CCRF-CEM [5] = test: Cytotoxicity against human CCRF-CEM cells assessed as cell growth at 1 uM after 48 hrs by sulforhodamine B assay relative to control; settings: read-out: Activity
K562 [6] = test: Cytotoxicity against human K562 cells assessed as cell growth at 1 uM after 48 hrs by sulforhodamine B assay relative to control; settings: K562, 48 h, read-out: Activity
Malme-3M [7] = test: Cytotoxicity against human MALME-3M cells assessed as cell growth at 1 uM after 48 hrs by sulforhodamine B assay relative to control; settings: read-out: Activity
M14 [8] = test: Cytotoxicity against human M14 cells assessed as cell growth at 1 uM after 48 hrs by sulforhodamine B assay relative to control; settings: M14, 48 h, read-out: Activity
IGROV-1 [9] = test: Cytotoxicity against human IGROV1 cells assessed as cell growth at 1 uM after 48 hrs by sulforhodamine B assay relative to control; settings: IGROV-1, 48 h, read-out: Activity
NCI/ADR-RES = test: Cytotoxicity against human NCI/ADR-RES cells assessed as cell growth at 1 uM after 48 hrs by sulforhodamine B assay relative to control; settings: read-out: Activity
786-0 = test: Cytotoxicity against human 786-0 cells assessed as cell growth at 1 uM after 48 hrs by sulforhodamine B assay relative to control; settings: 786-0, 48 h, read-out: Activity
CCRF-CEM [10] = test: Cytotoxicity against human CCRF-CEM cells assessed as cell growth at 10 uM after 48 hrs by sulforhodamine B assay relative to control; settings: read-out: Activity
K562 [11] = test: Cytotoxicity against human K562 cells assessed as cell growth at 10 uM after 48 hrs by sulforhodamine B assay relative to control; settings: K562, 48 h, read-out: Activity
NCI-H226 [12] = test: Cytotoxicity against human NCI-H226 cells assessed as cell growth at 10 uM after 48 hrs by sulforhodamine B assay relative to control; settings: NCI-H226, 48 h, read-out: Activity
NCI-H460 [13] = test: Cytotoxicity against human NCI-H460 cells assessed as cell growth at 10 uM after 48 hrs by sulforhodamine B assay relative to control; settings: NCI-H460, 48 h, read-out: Activity
M14 [14] = test: Cytotoxicity against human M14 cells assessed as cell growth at 10 uM after 48 hrs by sulforhodamine B assay relative to control; settings: M14, 48 h, read-out: Activity
RXF 393 = test: Cytotoxicity against human RXF393 cells assessed as cell growth at 10 uM after 48 hrs by sulforhodamine B assay relative to control; settings: RXF 393, 48 h, read-out: Activity
UO-31 [15] = test: Cytotoxicity against human UO31 cells assessed as cell growth at 10 uM after 48 hrs by sulforhodamine B assay relative to control; settings: UO-31, 48 h, read-out: Activity
K562 [16] = test: Cytotoxicity against human K562 cells assessed as cell growth at 100 uM after 48 hrs by sulforhodamine B assay relative to control; settings: K562, 48 h, read-out: Activity
HT-29 = test: Cytotoxicity against human HT-29 cells assessed as cell growth at 100 uM after 48 hrs by sulforhodamine B assay relative to control; settings: HT-29, 48 h, read-out: Activity
Malme-3M [17] = test: Cytotoxicity against human MALME-3M cells assessed as cell growth at 100 uM after 48 hrs by sulforhodamine B assay relative to control; settings: read-out: Activity
IGROV-1 [18] = test: Cytotoxicity against human IGROV1 cells assessed as cell growth at 100 uM after 48 hrs by sulforhodamine B assay relative to control; settings: IGROV-1, 48 h, read-out: Activity
OVCAR-3 [19] = test: Cytotoxicity against human OVCAR3 cells assessed as cell growth at 100 uM after 48 hrs by sulforhodamine B assay relative to control; settings: OVCAR-3, 48 h, read-out: Activity
UO-31 [20] = test: Cytotoxicity against human UO31 cells assessed as cell growth at 100 uM after 48 hrs by sulforhodamine B assay relative to control; settings: UO-31, 48 h, read-out: Activity

**Q.** What does the source list for `COc1ccc(-c2cc(/C=C/C(=O)c3ccc(OC)c(OC)c3)[nH]n2)cc1`?
**A.** GI50 (SR): 0.67 µM; TGI (SR): 3.74 µM; CC50 (SR; read-out: LC50 (the source's name)): > 100 µM; GI50 (HOP-62): 2.35 µM; LC50 (HOP-62): 35.3 µM; TGI (HOP-62): 6.17 µM; GI50 (HCC 2998): 2.02 µM; LC50 (HCC 2998): 7.81 µM; TGI (HCC 2998): 3.97 µM; GI50 (KM12): 1.38 µM; LC50 (KM12): 7.01 µM; TGI (KM12): 3.11 µM; GI50 (Hs-578T): 3.38 µM; LC50 (Hs-578T): > 100 µM; TGI (Hs-578T): 29 µM; growth at 0.01 µM (OVCAR-3 [1]): 106%; growth at 0.01 µM (COLO 205): 103%; growth at 0.01 µM (NCI-H226 [2]): 83%; growth at 0.01 µM (HL-60(TB)): 102%; growth at 0.01 µM (MCF7): 91%; growth at 0.1 µM (NCI-H460 [3]): 101%; growth at 0.1 µM (SF-539): 94%; growth at 0.1 µM (SK-MEL-5): 93%; growth at 0.1 µM (OVCAR-3 [4]): 104%; growth at 0.1 µM (OVCAR-8): 89%; growth at 0.1 µM (DU-145): 109%; growth at 0.1 µM (BT-549): 105%; growth at 1 µM (CCRF-CEM [5]): 63%; growth at 1 µM (K562 [6]): 56%; growth at 1 µM (Malme-3M [7]): 82%; growth at 1 µM (M14 [8]): 97%; growth at 1 µM (IGROV-1 [9]): 77%; growth at 1 µM (NCI/ADR-RES): 91%; growth at 1 µM (786-0): 86%; growth at 10 µM (CCRF-CEM [10]): -39%; growth at 10 µM (K562 [11]): 1%; growth at 10 µM (NCI-H226 [12]): -64%; growth at 10 µM (NCI-H460 [13]): -43%; growth at 10 µM (M14 [14]): -42%; growth at 10 µM (RXF 393): -82%; growth at 10 µM (UO-31 [15]): -96%; growth at 100 µM (K562 [16]): -26%; growth at 100 µM (HT-29): -81%; growth at 100 µM (Malme-3M [17]): -100%; growth at 100 µM (IGROV-1 [18]): -84%; growth at 100 µM (OVCAR-3 [19]): -96%; growth at 100 µM (UO-31 [20]): -100%
